Results on one molecule are retold here after patent publication US20230233736A1, “ANTIMICROBIAL FORMULATIONS COMPRISING SILICONE” (AMICOAT AS, priority 2020, published 2023).

The subject of one test is Aspergillus niger. The experiment in a line: MIC microbroth dilution (CLSI). In kind it is cell-based. The note with it: G.R. Micro collection.
Test [1] concerns Staphylococcus aureus FDA486. The experiment in a line: Murine skin infection model, topical treatment. It counts as in vivo, mice. The note with it: FIG. 1; cream or gel containing 2% (w/w), three treatments at three hourly intervals, compared to placebo. Here is the method: (§1) The skin of mice was infected with Staphylococcus aureus or Streptococcus pyogenes and subsequently given a total of three treatments at three hourly intervals. Three hours after the last treatment, skin biopsies were collected and the number of colony forming units (CFUs) present in the skin sample was determined. Results are shown in FIGS. 1 and 2, expressed as the number of colony forming units per mouse.
In experiment 1 (FIG. 1), compound 2 was applied to the murine skin as part of either a cream or a gel containing 2% (w/w) of compound 2. The same cream or gel without compound 2 was used as a negative control (placebo).
(§2) The skin of mice was infected with Staphylococcus aureus or Streptococcus pyogenes and subsequently given a total of three treatments at three hourly intervals. Three hours after the last treatment, skin biopsies were collected and the number of colony forming units (CFUs) present in the skin sample was determined. Results are shown in FIGS. 3, 4 and 5 expressed as the number of colony forming units per mouse.
In experiment 1 (FIG. 3), compound 7 was applied to the murine skin as part of either a cream or a gel containing 2% (w/w) of compound 7. The same cream or gel without compound 7 was used as a negative control (placebo). Bactroban 2% cream was used as a positive control.
In experiment 3 (FIG. 5), compound 8 was applied in a 2% cream formulation on a Staphylococcus aureus FDA 486 infection in the murine skin infection model. A placebo cream and two known antibacterials, “Fucidin (fucidic acid) ointment 2%” and “Bactroban (mupericin) cream 2%” were used as controls.

A further test has as its system Streptococcus pyogenes. Put plainly: Murine skin infection model, topical treatment. It counts as in vivo, mice. The note with it: FIG. 2. On the procedure:
as §1
In experiment 2 (FIG. 2), compound 2 was applied in two different concentrations, as either a 1% or a 2% gel. A placebo gel and a known antibacterial “bactroban” were used as controls.
as §2
In experiment 2 (FIG. 4), compound 7 was applied in two different concentrations, as either a 1% or a 2% gel. A placebo gel and a known antibacterial “bactroban (mupericin)” were used as controls.

Test [2] deals with Staphylococcus aureus, strain ATCC 25923. The note with it: S. aureus ATCC 25923.

Structures are written as SMILES. Bounds are passed on as bounds.

Regarding `CC(C)(C)c1cc(C(C)(C)C)c2[nH]c(C(C)(C)C)c(CC(NC(=O)C(N)CCCNC(=N)N)C(=O)NC(CCCNC(=N)N)C(=O)NCCc3ccccc3)c2c1` (stereo not shown) [Compound 2], the MIC against Aspergillus niger was 8; in test [2] it was under 3 µM. In addition, the “number of colony forming units (CFU) in skin biopsy” value in test [1] was “number of CFUs was reduced”; with Streptococcus pyogenes (1% or 2% gel, three treatments at three hourly intervals), “more effective at reducing the number of CFUs than the placebo gel or the bactroban”. The “number of CFUs, 2% gel compared with 1% gel” value with Streptococcus pyogenes is recorded as “more effective than the gel containing only 1% of compound 2”. In addition, the “minimum inhibitory concentration (MIC)” value in the test with S. aureus and in the test with S. epidermidis was 2 to 4 µg/mL in each case.
